± gives the expanded uncertainty stated by the source.

In the NIST ThermoML archive (doi:10.1021/je1011423) one finds Normal melting temperature data, which are given here for one molecule.

The conditions of the data set: Crystal; thermal gravimetric analysis.

As to `O=[N+]([O-])c1cc([N+](=O)[O-])c(O)c(Cl)c1O` [2-chloro-4,6-dinitroresorcinol], the Normal melting temperature came to 185.00 ± 0.01 °C.
